Tests used:
Assay type in all cases: cell-based
[1] = Activation of PKC signaling in human HUES8 cells assessed as increase in Pdx1-expressing cells at 500 nM after 4 days by immunocytochemistry pregrown in medium with Wnt3a, activin A, FGF10, KAAD-cyclopamine and retinoic acid relative to ILV treated cells
[2] = Activation of PKC signaling in human HUES8 definitive endoderm cells assessed as increase in Pdx1-expressing cells at 500 nM after 4 days by immunocytochemistry (reference value: 2.8+/-0.6%)
[3] = Activation of PKC signaling in human HUES8 definitive endoderm cells assessed as increase in Pdx1-expressing cells at 14 nM after 4 days by immunocytochemistry (reference value: 2.8+/-0.6%)
[4] = Activation of PKC signaling in human HUES8 cells assessed as increase in Pdx1-expressing cells at 14 nM after 4 days by immunocytochemistry pregrown in medium with Wnt3a, activin A, FGF10, KAAD-cyclopamine and retinoic acid relative to ILV treated cells

Row | SMILES | inhibition [1] | inhibition [2] | inhibition [3] | inhibition [4]
1 | CC(C)[C@H]1C(=O)N[C@H](CO)Cc2cc(NC(=O)/C=C/C=C/c3ccc(C(F)(F)F)cc3)ccc2N1C | 15.4% | 12.2% | – | –
2 | CCCCCCCCCCCCCC(=O)O[C@@H]1[C@@H](C)[C@@]2(O)[C@@H](C=C(CO)C[C@]3(O)C(=O)C(C)=C[C@@H]23)[C@@H]2C(C)(C)[C@]12OC(C)=O | – | – | 18.3% | 21.3%
